The source of these data is patent US20080312298A1, “Methods for Identification of Modulators of Carm1 Methyl Transferase Activity” (priority 2007, published 2008).

This experiment deals with T1, CARM1 (Homo sapiens, UniProt Q86X55).
T1 construct: made in house; host or cells: E. coli
T1 sequence (Q86X55 1-608): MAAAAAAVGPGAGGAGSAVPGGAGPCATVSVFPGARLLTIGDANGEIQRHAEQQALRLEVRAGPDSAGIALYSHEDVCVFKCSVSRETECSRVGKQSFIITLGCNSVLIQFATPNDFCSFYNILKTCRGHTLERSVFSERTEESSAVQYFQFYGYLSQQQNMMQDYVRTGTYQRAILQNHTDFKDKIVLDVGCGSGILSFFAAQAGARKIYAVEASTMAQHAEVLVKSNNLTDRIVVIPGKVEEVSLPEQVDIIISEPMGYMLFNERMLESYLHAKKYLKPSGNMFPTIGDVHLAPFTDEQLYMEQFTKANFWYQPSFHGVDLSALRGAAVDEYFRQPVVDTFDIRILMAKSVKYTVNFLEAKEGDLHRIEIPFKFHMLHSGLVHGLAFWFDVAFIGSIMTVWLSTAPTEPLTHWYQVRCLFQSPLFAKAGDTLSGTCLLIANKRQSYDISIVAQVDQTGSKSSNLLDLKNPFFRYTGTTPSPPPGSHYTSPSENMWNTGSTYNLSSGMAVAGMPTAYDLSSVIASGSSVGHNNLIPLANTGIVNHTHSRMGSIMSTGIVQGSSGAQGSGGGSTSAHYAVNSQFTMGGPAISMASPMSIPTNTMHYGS
The experiment is described as follows: CARM1 biochemical assay (scintillation proximity assay, SPA). From the text:
CARM1 biochemical Assay. (e.g. for Determining IC50 Values).
A fusion protein of CARM1 to MBP (Maltose Binding protein), expressed and purified from E. coli, was used to methylate peptides derived from either the N-terminus of histone H3 (acetyl-STGGKAPRKQLATKAARK-biotin) or from PABP1 (acetyl-[…]-biotin). The H3 peptide has two residues R17 and R26 that have been reported to be methylated by CARM1 (Brandon et al., Biochemistry, 2001, 40(19):5747-5756). The PABP1 peptide also contains two arginine residues, R455 and R460, similarly methylated by CARM1 (Lee and Bedford, EMBO Rep. 2002, 3(3):268-73). The methylation reaction was conducted in the presence of tritiated S-Adenosyl-L-Methionine (3H-SAM), 1 μg MBP-CARM1, 250 nM peptide substrate, and assay buffer (50 mM Tris pH 8.0, 0.03% BSA, 3 mM DTT). The reaction was allowed to proceed at room temperature for 75 minutes before being stopped by Stop buffer (25 mM Tris pH 7.4, 100 mM EDTA, 1% Tween 20) and Streptavidin-coated SPA beads (2 mg/ml) (GE Healthcare). The beads were allowed to settle overnight before the signal was counted in a TOPCOUNT. The final SAM concentration in the reaction and the ratio of tritiated to unlabelled SAM was adjusted to give a good signal/noise. […]
(In a scintillation proximity assay essentially only radioactivity close to the scintillant gives light.)

The structures appear in SMILES notation.

Turning to `CNC[C@H](O)c1cccc(O)c1`, the “mode of inhibition with respect to SAM” value is reported as “SAM competitive”. The IC50 entry (at saturating SAM concentrations) is recorded as “low micromolar”.
